Test results from patent US5605929A, “Methods and compositions for inhibiting 5α-reductase activity” (priority 1995, dated 1997).
Where two headings read alike, the source gives them in different places.

Assays:
5α-reductase = test: Catechin gallates in rat liver microsomes or cells expressing type 1 or type 2 5α-reductase; assay type: biochemical; details: for inhibitory activity: vs catechin gallate
[1] = biological target: T1, 5α-Reductase of Rat Liver Microsomes (Rattus norvegicus, UniProt P24008); test: [3H]4-MA binding assay, rat liver microsomes (tea catechins); details: concentrations up to 200 μM
T1 sequence (P24008 1-259): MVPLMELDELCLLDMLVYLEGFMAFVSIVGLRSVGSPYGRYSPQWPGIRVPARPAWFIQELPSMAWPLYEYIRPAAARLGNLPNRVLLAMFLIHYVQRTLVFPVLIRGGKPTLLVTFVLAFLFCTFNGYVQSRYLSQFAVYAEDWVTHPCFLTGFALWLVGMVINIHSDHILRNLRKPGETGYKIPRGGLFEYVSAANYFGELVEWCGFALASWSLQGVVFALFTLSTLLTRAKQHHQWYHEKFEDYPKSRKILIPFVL
Procedure: Microsomes were prepared as described previously (Liang and Liao, 1992) from the liver of adult Sprague-Dawley female rats or Rat-1A cells expressing a specific type of human 5α-reductase. Each study was carried out in duplicate or triplicate which were usually within 10% of each other. Several studies were preformed to assure that the results shown are representative. The data presented was based on the rate of reaction.
[^3 H]4-MA binding assay were described in detail previously (Liang and Liao, 1992; Liang et al., 1983). […] The reaction was started by the addition of 25 μl of microsomes (25 μg protein). After 30-60 min incubation at 0° C., the [^3 H]4-MA bound to microsomes was collected on a Whatman GF/F glass fiber, washed and radioactivity determined (Liang and Liao, 1992).

hamster flank organ = test: Flank organ, castrated immature male hamsters, topical treatment; assay type: in vivo, Syrian golden hamster; details: for Pigmented macule Right (+T): T alone 49.6 ± 8.3; for Pigmented macule Left: Table 5, fatty acid 1 mg without T; for inhibition of T-induced growth of pigmented macule: hamster, in vivo
Procedure: One to two weeks after castration, the hair on the lower back of each animal was clipped with an electric hair clipper and then shaved weekly to expose the flank organs. The animals were divided into 5 animals/treatment group. A treatment solution (5 μl) was applied topically to the right flank organ once a day using a Pipetteman and a polypropylene disposable tip. Unless specified the left flank organ was not treated. The treatment solution contained either (a) ethanol alone (vehicle and control), (b) an androgen (T or 5α-DHT), (c) a fatty acid, or (d) a combination of an androgen and a fatty acid. The flank organ was wiped with an alcohol pad to remove residual compound before each treatment. […] The flank organs, both the treated and untreated sides, were evaluated with methods to be described below to determine the effect of these treatments of the growth of the pigmented macules and the sebaceous glands. The body weight of each animal was recorded before and after treatment.
The data are presented as mean ± standard deviation. […]

[2] = biological target: T1, 5α-Reductase of Rat Liver Microsomes; details: for stimulation or inhibition of [^3 H]4-MA binding: 40 μM
[3] = biological target: T1, 5α-Reductase of Rat Liver Microsomes; test: biochemical; details: for activation at 200 µM: 1 h, read-out: stimulation of [^3 H]4-MA binding
microsomal 5α-reductase = biological target: T2, microsomal 5α-reductase (Rattus norvegicus, UniProt P24008); test: Enzymatic assay of microsomal 5α-reductase (testosterone to 5α-DHT); assay type: biochemical; details: prostate or liver microsomes
T2 construct: from the livers of adult Sprague-Dawley female rats; from tissue; host or cells: liver microsomes of adult female Sprague-Dawley rats
T2 sequence (P24008 1-259): T1 sequence (P24008 1-259)
Procedure: Microsomes were prepared at 4° C. from a buffered 0.32M-sucrose homogenate of human liver and from the livers of adult Sprague-Dawley female rats by differential centrifugation as described previously (Liang et al., 1990), and were used in the assay of 5α-reductase activity. In some experiments, microsomes were solubilized with 0.1% polyoxyethylene ether W-1 as described previously (Liang et al., 1990), except for the substitution of polyoxyethylene ether W-1 for Lubrol-WX.

[4] = Table 5, T 0.5 μg + fatty acid 1 mg
[5] = Table 5, T 0.5 μg + fatty acid 1 mg, 21 days
[6] = read-out: % Inhibition of [^3 H]4-MA binding, Table 1, 40 μM
[7] = read-out: % Inhibition of [^3 H]4-MA binding, Table 1, 200 μM
[8] = read-out: % Inhibition of [^3 H]4-MA binding, Table 2, 40 μM
[9] = read-out: % Inhibition of [^3 H]4-MA binding, Table 2, 200 μM
[10] = read-out: % Inhibition of [^3 H]4-MA binding, Table 1, 10 μM
[11] = read-out: % Inhibition of [^3 H]4-MA binding, Table 2, 10 μM
[12] = read-out: % Inhibition of [^3 H]4-MA binding

Compound	inhibitory activity (5α-reductase)	Pigmented macule Right (+T) (hamster flank organ; [5])	Pigmented macule Left (hamster flank organ; 21 days)	inhibition of T-induced growth of pigmented macule (hamster flank organ)	inhibitory activity in [^3 H]4-MA binding assay [2]	inhibition at 40 µM [3, 6]	inhibition at 200 µM [3, 7]	inhibition at 40 µM [3, 8]	inhibition at 200 µM [3, 9]	also measured
CCCCCCCCOC(=O)c1cc(O)c(O)c(O)c1 [n-octyl gallate]	low inhibitory activity									
O=C(O)c1cc(O)c(O)c(O)c1 [gallic acid, reference compound]	not as active as catechin gallate									inhibitory activity [1]: not active
CCCCCCCC/C=C\CCCCCCCCCCCCCC(=O)O [Nervonic acid]		39.9 ± 5.4 mm^2	4.0 ± 1.5 mm^2	no significant inhibition	inactive	< 10%	< 10%	< 10%	< 10%	p (significance of inhibition) (hamster flank organ; [4]): N.S.; IC50 [3]: > 200 µM
CC1=C(/C=C/C(C)=C/C=C/C(C)=C\C(=O)O)C(C)(C)CCC1 [13-cis-retinoic acid]					slightly stimulatory					stimulation or inhibition of [^3 H]4-MA binding [2]: no stimulation or inhibition; activation at 200 µM [3]: 58%
Oc1cc(O)c2c(c1)OC(c1ccc(O)c(O)c1)C(O)C2 (stereo not shown) [Catechin]										inhibition (5α-reductase; 40 μM): less than 25%
CC1=C(/C=C/C(C)=C/C=C/C(C)=C\CO)C(C)(C)CCC1 [13-cis-retinol]					slightly stimulatory					stimulation or inhibition of [^3 H]4-MA binding [2]: no stimulation or inhibition; activation at 200 µM [3]: 58%
CCCOC(=O)c1cc(O)c(O)c(O)c1 [n-propyl gallate]	not as active as catechin gallate									
CCCCCCCC/C=C/CCCCCCCC(=O)O [Elaidic acid]		47.0 ± 5.9 mm^2	4.9 ± 1.1 mm^2	inactive	much less inhibitory than their cis isomers	< 10%	< 10%	< 10%	< 10%	inhibition in the enzymatic assay (microsomal 5α-reductase): as potent as their cis isomers; p (significance of inhibition) (hamster flank organ; [4]): N.S.; inhibition at 10 µM [3, 10]: < 10%; inhibition at 10 µM [3, 11]: < 10%
COC(=O)c1cc(O)c(O)c(O)c1 [methyl gallate]	not as active as catechin gallate									
CCCCC/C=C/C/C=C/CCCCCCCC(=O)O [Linolelaidic acid]		46.6 ± 8.7 mm^2	4.1 ± 0.7 mm^2	inactive	much less inhibitory than their cis isomers	< 10%	19 ± 5%	< 10%	19%	inhibition in the enzymatic assay (microsomal 5α-reductase): as potent as their cis isomers; p (significance of inhibition) (hamster flank organ; [4]): N.S.; inhibition at 10 µM [3, 11]: < 10%
CC/C=C\C/C=C\C/C=C\C/C=C\C/C=C\C/C=C\CCC(=O)O [Docosahexaenoic acid, cis-4,7,10,13,16,19-docosahexaenoic acid]					potent inhibitor	27 ± 1%	87 ± 6%	49%	86%	IC50 [3]: 47 µM; inhibition at 10 µM [3, 10]: < 10%; inhibition at 5 µM ([3]; read-out: % Inhibition of [^3 H]4-MA binding, Table 2, 5 μM): < 10%; inhibition at 10 µM [3, 11]: 18%
CCCCCCCC/C=C\CCCCCCCCCCCC(=O)O [Erucic acid]		35.4 ± 4.6 mm^2	4.6 ± 1.5 mm^2	Weak inhibitions	inactive	< 10%	< 10%	< 10%	< 10%	Percent Inhibition (hamster flank organ; [5]): 29%; IC50 [3]: > 200 µM; inhibition at 10 µM [3, 11]: < 10%
C=CCCCCCCCCC(=O)O [Undecylenic acid]		41.7 ± 10.7 mm^2	4.7 ± 1.2 mm^2	no significant inhibition	inactive					p (significance of inhibition) (hamster flank organ; [4]): N.S.; % Inhibition of [^3 H]4-MA binding ([2]; Table 2, 40 μM): NA (less than 10% inhibition were considered not active (NA)); inhibition at 10 µM [3, 12]: < 10%; inhibition at 40 µM [3, 12]: < 10%; inhibition at 200 µM [3, 12]: 13 ± 2%
NC(=O)c1cc(O)c(O)c(O)c1 [3,4,5-trihydroxybenzamide]	not as active as catechin gallate									
Oc1cccc(O)c1O [pyrogallol]	not as active as catechin gallate									
